According to patent US9684238B2, “Fluorene-type compound, photopolymerization initiator comprising said fluorene-type compound, and photosensitive composition containing said photopolymerization initiator” (TOKYO OHKA KOGYO CO., LTD., priority 2012, dated 2017):

How the values were obtained:
[1] = Transmittance of transparent cured film; assay type: physicochemical; details: for Average transmittance (700 nm to 400 nm) Transparent cured film / Transmittance (400 nm) Transparent cured film: cured at exposure energy quantity 80 mJ/cm^2; for transparency of photosensitive composition and formed product (in words): photopolymerization initiator containing the compound
Experimental: Transparent cured films were formed by using the photosensitive compositions obtained in Examples 1 to 9, Examples 2-1 to 2-10, and Comparative Examples 1 and 2 in the same manner as in the evaluation 1 except that the exposure energy quantity was set to 80 mJ/cm^2. The transmittance (%) of each of the resultant transparent cured films at 400 nm and the average transmittance (%) thereof in the range of from 400 to 700 nm were measured with a spectrophotometer (manufactured by Hitachi High-Technologies Corporation, trade name: “U-3900H”, quartz cell, optical path length; 1 cm). A higher transmittance at 400 nm means less coloring with a yellow color. In addition, a higher transmittance of a coating film means a higher transmitting property of a pattern to be formed.

[2] = Evaluation 1: 20-μm pattern line width of transparent photosensitive composition; details: for sensitivity to the active energy ray (in words): photopolymerization initiator containing the compound; for 20-μm pattern line width: transparent composition, initiator 0.4 mmol
Experimental: After that, the mixture was filtered with a membrane filter having an aperture of 5 μm to provide a photosensitive composition.
It should be noted that the fluorene-based compound as a photopolymerization initiator was used in such an amount that its molar quantity was kept constant in the respective examples and comparative examples.
The glass substrate after the application was dried with a fan dryer at 90° C. for 10 minutes. Thus, a coating film (photosensitive layer) was formed. Next, the film was exposed to light having an exposure energy quantity of 5 mJ/cm^2, 10 mJ/cm^2, 20 mJ/cm^2, 40 mJ/cm^2, 60 mJ/cm^2, or 80 mJ/cm^2 by using a high-pressure mercury lamp (manufactured by Karl Suss, trade name: “MASK ALIGNER”) through a negative mask (mask width: 20 μm). Next, the resultant was immersed in a 0.1 wt % aqueous solution of tetramethylammonium hydroxide (TMAH) and then rinsed with pure water. The remaining cured film was subjected to the following evaluation.
(§1) A larger value for the line width means higher sensitivity.

[3] = Average transmittance of composition; assay type: physicochemical; details: photosensitive composition, quartz cell, optical path length 1 cm
Experimental: The average transmittance (%) of each of the photosensitive resin compositions obtained in Examples 1 to 9, Examples 2-1 to 2-10, and Comparative Examples 1 and 2 in the range of from 400 nm to 700 nm was measured with a spectrophotometer (manufactured by Hitachi High-Technologies Corporation, trade name: “U-3900H”, quartz cell, optical path length; 1 cm).

[4] = Absorption coefficient (absorbance of 0.001% solution in tetrahydrofuran); assay type: physicochemical; details: for Λ max (absorption maximum wavelength): 0.001% (wt/vol) in tetrahydrofuran, from 280 nm to 400 nm; for Absorption coefficient at 365 nm / Absorption coefficient at Λ max: 0.001% (wt/vol) solution in tetrahydrofuran
Experimental: A 0.001% (wt/vol) solution of each of the compounds 1, 2, 4, 6, 8, 9, 11, 12, 13, 15, 16, D-1, D-3, D-4, D-7, D-8, D-9, D-12, D-14, D-15, D-20, C-1, and C-2 in tetrahydrofuran was prepared, and its absorbance was measured with a spectrophotometer (manufactured by Hitachi High-Technologies Corporation, trade name: “U-3900H”). An absorption maximum wavelength (Amax) at a wavelength of from 280 nm to 400 nm was read from an absorption spectrum obtained with the spectrophotometer.

[5] = Decomposition point by thermal analysis (TG-DTA); assay type: physicochemical; details: 5.0 mg
Experimental: The compounds 1, 2, 4, 6, 8, 9, 11, 12, 13, 15, 16, D-1, D-3, D-4, D-7, D-8, D-9, D-12, D-14, D-15, D-20, C-1, and C-2 were each subjected to measurement with a thermal analysis apparatus (TG-DTA) (manufactured by Rigaku Corporation, trade name: “Thermo Plus EVO TG 8120”) by using 5.0 mg thereof.

[6] = Solubility in PGME, PGMEA and ethyl lactate; assay type: physicochemical; details: for solubility (in words): photopolymerization initiator containing the compound; for Solubility Ethyl lactate: in 100 parts by weight of ethyl lactate; for Solubility Ethyl lactate / Solubility PGMEA / Solubility PGME: room temperature; for Solubility PGMEA: in 100 parts by weight of propylene glycol monomethyl ether acetate; for Solubility PGME: in 100 parts by weight of propylene glycol monomethyl ether
Experimental: An evaluation for solubility was performed in accordance with the following evaluation criteria based on the dissolution amount.
A: 10 Parts by weight or more of the photopolymerization initiator is dissolved.
B: An amount in the range of from 5 parts by weight or more to less than 10 parts by weight of the photopolymerization initiator is dissolved.
C: An amount in the range of from 2 parts by weight or more to less than 5 parts by weight of the photopolymerization initiator is dissolved.
D: Less than 2 parts by weight of the photopolymerization initiator is dissolved.

[7] = Evaluation 3: 20-μm pattern line width of black photosensitive composition; details: black composition (carbon black, cardo resin), initiator 0.4 mmol
Description: The mixture was filtered with a membrane filter having an aperture of 5 μm to provide a photosensitive composition.
Photosensitive compositions were each obtained in the same manner as in Example 10 except that the used fluorene-based compound and its usage were changed as shown in Table 5.
Each of the photosensitive compositions obtained in Examples 10 to 15, Examples 2-11 to 2-20, and Comparative Example 3 was applied onto a glass substrate with a spin coater (manufactured by Kyowariken Co., Ltd., trade name: “K-359SD1”) so that its thickness after drying became 1.0 μm. The glass substrate after the application was dried with a fan dryer at 90° C. for 10 minutes. Thus, a coating film (photosensitive layer) was formed. Next, the film was exposed to light having an exposure energy quantity of 10 mJ/cm^2, 20 mJ/cm^2, 40 mJ/cm^2, 60 mJ/cm^2, or 80 mJ/cm^2 by using a high-pressure mercury lamp (manufactured by Karl Suss, trade name: “MASK ALIGNER”) through a negative mask (mask width: 20 μm). Next, the resultant was immersed in a 0.1 wt % aqueous solution of tetra methyl ammonium hydroxide (TMAH) and then rinsed with pure water. The remaining cured film was subjected to the following evaluation. In addition, FIGS. 2, 3, and 6 show microscope photographs of black cured films obtained by using the photosensitive compositions of Examples 10 and 11, and Comparative Example 3, and FIGS. 7 to 11 show microscope photographs of black cured films obtained by using the photosensitive compositions of Examples 2-11, 2-13, 2-14, 2-17, and 2-18.
as §1

[8] = exposure energy quantity 10 mJ/cm^2
[9] = exposure energy quantity 20 mJ/cm^2
[10] = exposure energy quantity 40 mJ/cm^2
[11] = exposure energy quantity 60 mJ/cm^2
[12] = exposure energy quantity 80 mJ/cm^2

Compound	Average transmittance (700 nm to 400 nm) Transparent cured film [1]	Transmittance (400 nm) Transparent cured film [1]	transparency of photosensitive composition and formed product (in words) [1]	Average transmittance (700 nm to 400 nm) Solution [3]	Λ max (absorption maximum wavelength) [4]	Absorption coefficient at 365 nm [4]	Absorption coefficient at Λ max [4]	Decomposition point [5]	sensitivity to the active energy ray (in words) [2]	20-μm pattern line width [2, 8]	20-μm pattern line width [2, 9]	20-μm pattern line width [2, 10]	20-μm pattern line width [2, 11]	20-μm pattern line width [2, 12]	20-μm pattern line width ([7]; 10 mJ/cm^2)	20-μm pattern line width ([7]; 20 mJ/cm^2)	20-μm pattern line width ([7]; 40 mJ/cm^2)	20-μm pattern line width ([7]; 60 mJ/cm^2)	20-μm pattern line width ([7]; 80 mJ/cm^2)	other results
CCCCCCC1(CCCCCC)c2cc(C(=O)c3cccs3)ccc2-c2ccc(C(CC(C)N(OC(C)=O)C(C)=O)=NOC(C)=O)cc21 (racemic) [Compound 11]	100.0%	99.1%	additionally excellent transparency	93.0%	333.5 nm	6.6 mL/mg/cm	55.0 mL/mg/cm	257.3 °C	additionally high sensitivity to the active energy ray	19.9	20.5	21.9	22.5	22.8						
CCCC1(CCC)c2cc(C(=NOC(C)=O)c3ccccc3C)ccc2-c2ccc([N+](=O)[O-])cc21 [Compound 1]	99.3%	92.0%		88.7%					additionally high sensitivity to the active energy ray	20.7	21.6	22.6	23.3	23.8	20.2	21.2	22.1	23.2	23.3	solubility (in words) [6]: additionally excellent solubility
CCCCCCC1(CCCCCC)c2cc(C(=NOC(C)=O)c3ccccc3C)ccc2-c2ccc([N+](=O)[O-])cc21 [Compound 2]	99.3%	92.8%		87.5%					additionally high sensitivity to the active energy ray	21.4	22.3	22.9	23.9	24.4		20.9	22.1	22.8	23.3	
CCCCCCC1(CCCCCC)c2cc(C(=O)c3ccccc3C)ccc2-c2ccc(C(C)=NOC(C)=O)cc21 [Compound 6]	97.3%	99.6%	additionally excellent transparency	95.4%						19.7	20.2	21.1	21.7	22.7	19.7	20.2	21.1	21.7	22.7	
CCCC1(CCC)c2cc(C(=NOC(C)=O)c3ccc(C(C)(C)C)cc3)ccc2-c2ccc([N+](=O)[O-])cc21 [Compound D-2]									additionally high sensitivity to the active energy ray						19.4	20.4	21.6	22.1	23.0	

Second part, led by results:

Average transmittance (700 nm to 400 nm) Transparent cured film [1]	Transmittance (400 nm) Transparent cured film [1]	transparency of photosensitive composition and formed product (in words) [1]	Average transmittance (700 nm to 400 nm) Solution [3]	Λ max (absorption maximum wavelength) [4]	Absorption coefficient at 365 nm [4]	Absorption coefficient at Λ max [4]	Decomposition point [5]	Compound	sensitivity to the active energy ray (in words) [2]	20-μm pattern line width [2, 8]	20-μm pattern line width [2, 9]	20-μm pattern line width [2, 10]	20-μm pattern line width [2, 11]	20-μm pattern line width [2, 12]	20-μm pattern line width ([7]; 10 mJ/cm^2)	20-μm pattern line width ([7]; 20 mJ/cm^2)	20-μm pattern line width ([7]; 40 mJ/cm^2)	20-μm pattern line width ([7]; 60 mJ/cm^2)	20-μm pattern line width ([7]; 80 mJ/cm^2)	other results
100.0%	100.0%	additionally excellent transparency	95.4%					CCCCCCC1(CCCCCC)c2cc(C(=O)c3ccccc3)ccc2-c2ccc(C(C)=NOC(C)=O)cc21 [Compound 8]	additionally high sensitivity to the active energy ray	19.6	20.1	21.7	22.7	23.0	19.6	20.1	21.7	22.7	23.0	solubility (in words) [6]: additionally excellent solubility
				315.0 nm	0.0 mL/mg/cm	70.0 mL/mg/cm	280.0 °C	CCCC1(CCC)c2ccccc2-c2ccc(/C(C)=N/OC(C)=O)cc21 [Compound 15]												Solubility Ethyl lactate [6]: D (Less than 2 parts by weight of the photopolymerization initiator is dissolved.); Solubility PGMEA [6]: C (An amount in the range of from 2 parts by weight or more to less than 5 parts by weight of the photopolymerization initiator is dissolved.); Solubility PGME [6]: D (Less than 2 parts by weight of the photopolymerization initiator is dissolved.)
				296.5 nm	0.1 mL/mg/cm	97.7 mL/mg/cm	240.9 °C	CC(=O)ON=C(C)c1ccc2c(c1)Cc1ccccc1-2 [Compound 16]												Solubility Ethyl lactate [6]: C (An amount in the range of from 2 parts by weight or more to less than 5 parts by weight of the photopolymerization initiator is dissolved.); Solubility PGMEA [6]: B (An amount in the range of from 5 parts by weight or more to less than 10 parts by weight of the photopolymerization initiator is dissolved.); Solubility PGME [6]: B (An amount in the range of from 5 parts by weight or more to less than 10 parts by weight of the photopolymerization initiator is dissolved.)
